Assay: Bioavailability in vivo in the rat after intraduodenal administration
Method: The formulations, A to D, respectively, were tested in vivo in the rat model using intraduodenally catheterized, nonanesthetized animals. Formulations were given as a bolus. Blood samples were withdrawn at certain time points for up to 4 hours after administration of the different formulations. The concentrations of HOOC—CH2—(R)-Cgl-Aze-Pab were analyzed in the plasma and the bioavailabilities calculated from the Area under the curve (AUC) using standard pharmacokinetic methods (Rowland and Tozer, Clinical Pharmacokinetics, concepts and applications, 1980).
The bioavailability increased tenfold to twentyfold when the different formulations mentioned in the invention were used, as compared to controls where only phosphate buffer of pH 8 was used (1). Formulation B was also tested in human healthy subjects using enteric coated capsules for administration directly to the duodenum. The results from the human study also indicate a tenfold increased absorption as compared to a control tablet or solution of the thrombin inhibitor base only.

Enhancing effect, glycerides from different sources compared: most efficient enhancing effect
SMILES: CCCCCCCC(=O)OCC(O)CO (stereo not shown) [glyceryl mono-octanoate(1-monocaprylin), glyceryl mono-octanoate]

Source: patent publication US6673365B1, “Formulation for treatment of thromboembolism” (priority 1996, dated 2004)
